Test results taken from patent US10835532B2, “Muscarinic agonists as cognitive enhancers” (The University of Toledo, priority 2008, dated 2020).

Legend:
M1 receptors = target: T1, M1 receptors (Homo sapiens, UniProt P11229); assay: PI metabolism in A9 L cells expressing M1 receptors; assay type: cell-based; settings: M1 receptors expressed in A9 L cells
T1 construct: expressed in transfected cells; host or cells: A9 L cells
T1 sequence (P11229 1-460): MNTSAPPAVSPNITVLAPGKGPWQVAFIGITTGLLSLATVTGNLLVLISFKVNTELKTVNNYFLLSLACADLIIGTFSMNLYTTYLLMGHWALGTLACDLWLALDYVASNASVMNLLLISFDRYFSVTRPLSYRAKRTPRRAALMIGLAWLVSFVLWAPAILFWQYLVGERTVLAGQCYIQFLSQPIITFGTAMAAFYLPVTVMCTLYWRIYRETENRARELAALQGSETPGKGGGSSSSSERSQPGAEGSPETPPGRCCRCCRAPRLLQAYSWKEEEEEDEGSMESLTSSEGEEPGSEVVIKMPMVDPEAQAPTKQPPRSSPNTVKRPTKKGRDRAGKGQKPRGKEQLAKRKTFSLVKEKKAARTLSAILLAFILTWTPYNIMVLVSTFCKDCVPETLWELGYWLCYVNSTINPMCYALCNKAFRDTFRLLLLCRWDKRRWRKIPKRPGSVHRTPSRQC
Protocol: (§1) The observed functional selectivity of CDD-0102A is unique among compounds purported to be selective M1 agonists. […] The lack of selectivity likely contributes to the high incidence of adverse effects observed when the compounds are administered to humans. To assess selectivity for muscarinic receptors, the ability of CDD-0102A to activate responses was compared with the nonselective, full agonist carbachol at each muscarinic receptor subtype. In cultured cell lines expressing individual muscarinic receptor subtypes, phosphoinositide (PI) metabolism studies assessed activity at M1, M3 and M5 receptors, while measures of cAMP levels examined M2 and M4 receptor activity. […] CDD-0102 was not active when M5 receptors were expressed at low levels in A9 L cells. […] Thus, CDD-0102 is a functionally-selective M1 agonist with weaker activity at M5 receptors, very weak activity at M3 receptor and no activity at M2 or M4 receptors.

M3 receptors = target: T2, M3 receptors (Homo sapiens, UniProt P20309); assay: PI metabolism in A9 L cells expressing M3 receptors; assay type: cell-based; settings: M3 receptors expressed in A9 L cells
T2 construct: expressed in transfected cells; host or cells: A9 L cells
Protocol: as §1

M5 receptors = target: T3, M5 receptors (Homo sapiens, UniProt P08912); assay: PI metabolism in A9 L cells expressing M5 receptors; assay type: cell-based
T3 construct: expressed in transfected cells; host or cells: A9 L cells
T3 sequence (P08912 1-532): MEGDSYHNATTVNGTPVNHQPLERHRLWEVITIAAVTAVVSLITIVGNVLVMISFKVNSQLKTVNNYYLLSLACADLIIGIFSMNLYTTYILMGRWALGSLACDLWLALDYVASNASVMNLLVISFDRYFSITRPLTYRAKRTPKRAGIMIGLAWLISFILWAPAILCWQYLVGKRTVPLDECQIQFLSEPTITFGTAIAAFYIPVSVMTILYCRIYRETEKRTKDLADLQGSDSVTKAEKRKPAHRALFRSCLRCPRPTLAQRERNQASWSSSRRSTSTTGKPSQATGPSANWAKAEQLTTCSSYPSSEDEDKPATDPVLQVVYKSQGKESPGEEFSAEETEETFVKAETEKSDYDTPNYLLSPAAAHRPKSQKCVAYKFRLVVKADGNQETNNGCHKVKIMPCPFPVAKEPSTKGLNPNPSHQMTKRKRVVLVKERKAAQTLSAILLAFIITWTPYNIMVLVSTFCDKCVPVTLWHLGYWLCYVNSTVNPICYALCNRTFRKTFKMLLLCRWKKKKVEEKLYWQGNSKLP
Protocol: as §1

M2 receptors = target: T4, M2 receptors (Homo sapiens, UniProt P08172); assay: Inhibition of adenylyl cyclase activity (cAMP levels) in A9 L cells expressing M2 receptors; assay type: cell-based
T4 construct: expressed in transfected cells; host or cells: A9 L cells
T4 sequence (P08172 1-466): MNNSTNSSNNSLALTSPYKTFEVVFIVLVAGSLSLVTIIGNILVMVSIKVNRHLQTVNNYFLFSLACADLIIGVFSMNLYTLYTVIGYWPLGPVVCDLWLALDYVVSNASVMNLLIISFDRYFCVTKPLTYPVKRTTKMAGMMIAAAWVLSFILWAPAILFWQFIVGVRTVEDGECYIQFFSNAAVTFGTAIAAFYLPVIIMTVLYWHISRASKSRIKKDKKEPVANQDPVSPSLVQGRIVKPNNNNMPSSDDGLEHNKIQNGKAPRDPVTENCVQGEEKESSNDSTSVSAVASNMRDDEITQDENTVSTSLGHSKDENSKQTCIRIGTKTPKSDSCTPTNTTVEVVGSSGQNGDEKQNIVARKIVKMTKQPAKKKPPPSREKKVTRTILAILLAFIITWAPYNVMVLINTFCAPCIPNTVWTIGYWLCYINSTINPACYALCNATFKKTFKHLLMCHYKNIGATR
Protocol: as §1

M4 receptors = target: T5, M4 receptors (Homo sapiens, UniProt P08173); assay: Inhibition of adenylyl cyclase activity (cAMP levels) in CHO cells expressing M4 receptors; assay type: cell-based
T5 construct: expressed in transfected cells; host or cells: CHO cells
T5 sequence (P08173 1-479): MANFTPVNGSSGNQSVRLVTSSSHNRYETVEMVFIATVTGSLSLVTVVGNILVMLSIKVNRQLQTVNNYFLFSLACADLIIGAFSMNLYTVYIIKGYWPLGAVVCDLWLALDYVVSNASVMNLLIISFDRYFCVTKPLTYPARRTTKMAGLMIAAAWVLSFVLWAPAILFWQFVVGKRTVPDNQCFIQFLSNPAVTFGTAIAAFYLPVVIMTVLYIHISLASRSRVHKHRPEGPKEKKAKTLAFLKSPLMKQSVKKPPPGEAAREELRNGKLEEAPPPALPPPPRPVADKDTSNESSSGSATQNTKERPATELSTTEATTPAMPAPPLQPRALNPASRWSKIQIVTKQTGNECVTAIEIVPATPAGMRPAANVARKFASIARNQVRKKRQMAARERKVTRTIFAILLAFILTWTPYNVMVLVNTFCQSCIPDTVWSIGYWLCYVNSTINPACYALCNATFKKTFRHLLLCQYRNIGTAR
Protocol: as §1

[1] = system: rats with impaired cholinergic function; settings: Messer et al. 2002; cited from earlier work
[2] = Messer et al. 2002; cited from earlier work
[3] = read-out: EC50, stimulation of PI metabolism

T2 sequence (P20309 whole entry): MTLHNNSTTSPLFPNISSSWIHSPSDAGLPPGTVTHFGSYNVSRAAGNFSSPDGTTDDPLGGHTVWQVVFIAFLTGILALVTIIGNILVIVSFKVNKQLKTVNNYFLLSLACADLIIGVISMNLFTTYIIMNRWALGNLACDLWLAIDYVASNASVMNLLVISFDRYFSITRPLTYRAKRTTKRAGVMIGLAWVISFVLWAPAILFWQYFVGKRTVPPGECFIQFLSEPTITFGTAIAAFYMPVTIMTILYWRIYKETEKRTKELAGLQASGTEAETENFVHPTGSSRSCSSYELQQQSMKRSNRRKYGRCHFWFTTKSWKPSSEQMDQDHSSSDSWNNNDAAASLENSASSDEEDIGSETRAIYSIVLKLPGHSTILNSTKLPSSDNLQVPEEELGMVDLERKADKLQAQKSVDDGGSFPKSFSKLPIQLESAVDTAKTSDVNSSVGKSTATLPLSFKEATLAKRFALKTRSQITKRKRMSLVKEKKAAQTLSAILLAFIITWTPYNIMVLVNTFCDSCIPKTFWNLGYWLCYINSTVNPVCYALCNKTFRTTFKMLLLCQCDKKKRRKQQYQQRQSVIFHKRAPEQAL

EC50 (M1 receptors; [3]): 13 µM
PI metabolism, % of the carbachol response (M1 receptors; relative to full agonist carbachol): 46%
EC50 (M3 receptors; [3]): 10 µM
PI metabolism, % of the carbachol response (M3 receptors; relative to carbachol): 6.6%
Activity in PI metabolism (M5 receptors; M5 receptors expressed at low levels in A9 L cells): not active
EC50 (M5 receptors; higher levels of M5 receptor expression in A9 L cells, read-out: EC50, stimulation of PI metabolism): 7.5 µM
PI metabolism, % of the carbachol response (M5 receptors; higher levels of M5 receptor expression in A9 L cells, relative to carbachol): 28%
Inhibition of adenylyl cyclase activity (M2 receptors): inactive
Inhibition of adenylyl cyclase activity (M4 receptors): inactive
SMILES: CCc1noc(C2CN=CNC2)n1 (centres unmarked) [CDD-0102, 5-(3-ethyl-1,2,4-oxadiazol-5-yl)-1,4,5,6-tetrahydropyrimidine]
Memory deficits [1]: reverses memory deficits
Side effect profile in vivo [2]: low side effect profile
